Measured values as given in ChEMBL document CHEMBL1129999, “Modeling, chemistry, and biology of the benzolactam analogues of indolactam V (ILV). 2. Identification of the binding site of the benzolactams in the CRD2 activator-binding domain of PKCdelta and discovery of an ILV analogue of improved isozyme selectivity” (J Med Chem, 1997).

Columns and labels:
[1] = target: T1, Protein kinase C delta type (Homo sapiens, UniProt Q05655); test: Displacement of [3H]- PDBu from recombinant PKC delta expressed in baculovirus
Target sequence in this assay (Q05655 whole entry): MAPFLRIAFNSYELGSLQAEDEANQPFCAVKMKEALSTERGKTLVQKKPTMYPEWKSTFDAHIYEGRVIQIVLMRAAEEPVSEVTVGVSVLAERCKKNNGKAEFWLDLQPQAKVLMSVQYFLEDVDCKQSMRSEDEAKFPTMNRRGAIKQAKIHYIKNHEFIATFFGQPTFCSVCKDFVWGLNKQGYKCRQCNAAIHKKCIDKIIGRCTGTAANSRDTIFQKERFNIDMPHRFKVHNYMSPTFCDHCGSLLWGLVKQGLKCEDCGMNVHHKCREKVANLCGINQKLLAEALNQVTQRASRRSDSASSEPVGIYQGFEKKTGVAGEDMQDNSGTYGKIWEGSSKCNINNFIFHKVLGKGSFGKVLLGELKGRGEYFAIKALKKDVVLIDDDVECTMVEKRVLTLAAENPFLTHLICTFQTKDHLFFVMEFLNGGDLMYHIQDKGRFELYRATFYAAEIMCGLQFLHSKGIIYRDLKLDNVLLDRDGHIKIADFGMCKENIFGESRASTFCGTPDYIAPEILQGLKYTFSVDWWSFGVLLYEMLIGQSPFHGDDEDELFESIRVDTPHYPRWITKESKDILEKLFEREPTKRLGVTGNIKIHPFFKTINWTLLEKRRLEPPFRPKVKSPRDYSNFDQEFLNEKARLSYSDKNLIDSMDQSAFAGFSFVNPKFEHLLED

[2] = target: Protein kinase C beta type (Homo sapiens, UniProt P05771); test: Displacement of [3H]- PDBu from recombinant PKC beta expressed in baculovirus
[3] = target: Protein kinase C alpha type (Homo sapiens, UniProt P17252); test: Displacement of [3H]- PDBu from recombinant PKC alpha expressed in baculovirus
[4] = target: T1, Protein kinase C delta type; test: Inhibition of [3H]PDBu binding to PKC delta mutant Pro 11-Gly
Target sequence in this assay (Q05655 whole entry, looked up): as the sequence (Q05655 whole entry) above

[5] = target: T1, Protein kinase C delta type; test: Inhibition of [3H]PDBu binding to PKC delta wild type
Target sequence in this assay (Q05655 whole entry): as above

[6] = target: T1, Protein kinase C delta type; test: Inhibition of [3H]-PDBu binding to PKC delta mutant Gln 27-Val
Target sequence in this assay (Q05655 whole entry, looked up): as the sequence (Q05655 whole entry) above

[7] = target: T1, Protein kinase C delta type; test: Inhibition of [3H]PDBu binding to PKC delta mutant Leu 20-Gly
Target sequence in this assay (Q05655 whole entry, looked up): as the sequence (Q05655 whole entry) above

[8] = target: T2, Protein kinase C epsilon type (Homo sapiens, UniProt Q02156); test: Displacement of [3H]- PDBu from recombinant PKC epsilon expressed in baculovirus
T2 sequence (Q02156 whole entry): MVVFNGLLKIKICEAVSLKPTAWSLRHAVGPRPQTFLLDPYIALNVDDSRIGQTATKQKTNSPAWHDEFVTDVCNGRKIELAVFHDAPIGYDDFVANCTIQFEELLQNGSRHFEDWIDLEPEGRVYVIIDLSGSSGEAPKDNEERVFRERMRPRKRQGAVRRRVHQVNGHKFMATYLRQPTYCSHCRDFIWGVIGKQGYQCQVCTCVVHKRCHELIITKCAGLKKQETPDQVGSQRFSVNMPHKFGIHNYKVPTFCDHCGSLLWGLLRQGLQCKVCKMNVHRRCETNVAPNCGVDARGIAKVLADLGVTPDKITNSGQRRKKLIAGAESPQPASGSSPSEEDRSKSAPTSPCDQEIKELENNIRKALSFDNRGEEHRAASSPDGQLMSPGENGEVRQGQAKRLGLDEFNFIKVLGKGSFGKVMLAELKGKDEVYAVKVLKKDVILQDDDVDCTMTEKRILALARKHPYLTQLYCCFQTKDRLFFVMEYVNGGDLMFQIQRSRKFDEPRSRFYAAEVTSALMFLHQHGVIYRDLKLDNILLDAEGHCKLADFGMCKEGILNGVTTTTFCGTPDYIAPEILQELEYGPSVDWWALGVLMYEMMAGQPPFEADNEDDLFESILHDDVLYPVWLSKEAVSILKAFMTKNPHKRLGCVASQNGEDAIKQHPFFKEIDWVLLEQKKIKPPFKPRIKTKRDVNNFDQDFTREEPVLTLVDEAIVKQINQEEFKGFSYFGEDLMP

[9] = target: Protein kinase C gamma type (Homo sapiens, UniProt P05129); test: Displacement of [3H]- PDBu from recombinant PKC gamma expressed in baculovirus
[10] = target: T1, Protein kinase C delta type; test: Inhibition of [3H]-PDBu binding to PKC delta mutant Leu 24-Gly (No binding)
Target sequence in this assay (Q05655 whole entry, looked up): as the sequence (Q05655 whole entry) above

[11] = target: T1, Protein kinase C delta type; test: Inhibition of [3H]PDBu binding to PKC delta mutant Gln 27-Gly (No binding)
Target sequence in this assay (Q05655 whole entry, looked up): as the sequence (Q05655 whole entry) above

Protein kinase C beta type, sequence (P05771 whole entry): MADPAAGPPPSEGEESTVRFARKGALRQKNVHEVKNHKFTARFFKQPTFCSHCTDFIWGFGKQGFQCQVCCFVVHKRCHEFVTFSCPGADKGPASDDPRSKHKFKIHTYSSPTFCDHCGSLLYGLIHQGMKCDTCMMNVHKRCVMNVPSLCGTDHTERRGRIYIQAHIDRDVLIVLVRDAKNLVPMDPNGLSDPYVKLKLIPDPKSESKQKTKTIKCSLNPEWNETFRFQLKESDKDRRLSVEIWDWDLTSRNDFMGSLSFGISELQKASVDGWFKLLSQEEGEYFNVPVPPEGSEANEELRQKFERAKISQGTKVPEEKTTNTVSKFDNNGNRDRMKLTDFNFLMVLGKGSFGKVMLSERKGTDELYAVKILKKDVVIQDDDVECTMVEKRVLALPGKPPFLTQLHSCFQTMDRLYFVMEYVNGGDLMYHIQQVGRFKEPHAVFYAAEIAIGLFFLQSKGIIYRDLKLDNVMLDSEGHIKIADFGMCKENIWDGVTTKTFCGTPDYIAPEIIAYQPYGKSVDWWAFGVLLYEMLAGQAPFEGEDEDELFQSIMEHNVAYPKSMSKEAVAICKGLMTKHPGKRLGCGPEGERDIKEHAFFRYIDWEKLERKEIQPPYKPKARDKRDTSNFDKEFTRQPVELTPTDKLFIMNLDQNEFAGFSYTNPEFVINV

SMILES	Ki [1] [nM]	Ki [2] [nM]	Ki [3] [nM]	Ki [4] [nM]	Ki [5] [nM]	Ki [6] [nM]	Ki [7] [nM]	Ki [8] [nM]	Ki [9] [nM]	Ki [10]	Ki [11]
CCCCCCCCC#Cc1ccc2c(c1)C[C@@H](CO)NC(=O)[C@H](C(C)C)N2C	122	17.4	14.7	730	10.7	933	134	142	40.7		
CC(C)[C@H]1C(=O)N[C@H](CO)Cc2c[nH]c3cccc(c23)N1C [INDOLACTUM]	8.2	6.1						21.9	19.4		
CC(C)[C@H]1C(=O)N[C@H](CO)Cc2ccccc2N1C			334								
CCCCCCCCc1ccc2c3c(c[nH]c13)C[C@@H](CO)NC(=O)[C@H](C(C)C)N2C	0.8	0.4	0.5					1	1.2		
CCCC(=O)O[C@@H]1[C@@H](C)[C@@]2(O)[C@@H](C=C(CO)C[C@]3(O)C(=O)C(C)=C[C@@H]23)[C@@H]2C(C)(C)[C@]12OC(=O)CCC										Not Active	Not Active
CCCCCCCCCCc1ccc2c(c1)C[C@@H](CO)NC(=O)[C@H](C(C)C)N2C	142		46.6					187	122		
